# How the values were obtained:
# U87MG Glioblastoma = experiment: three day MTT cytotoxicity assay, U87MG; format: cell-based, human; conditions: Standard (DMSO control), 72 hours
# Method: (§1) Briefly, a three day MTT cytotoxicity assay was performed, which is based on the principle of uptake of MTT (3-(4,5-dimethylthiazol-2-yl)-2,5-diphenyl tetrazolium bromide), a tetrazolium salt, by the metabolically active cells where it is metabolized by active mitochondria into a blue colored formazan product that is read spectrophoto-metrically. MTT was dissolved in phosphate buffered saline with a pH of 7.4 to obtain an MTT concentration of 5 mg/ml; the resulting mixture was filtered through a 0.22 micron filter to sterilize and remove a small amount of insoluble residue. For each type of tumor cell, 20,000 to 50,000 cells were seeded in a 96-well culture plate and incubated with the formulation or standard in a CO2 incubator for […]. […] The assay was terminated after 72 hours by adding 100 ug (20 ul) of MTT to each well, then incubating for additional one hour, and finally adding 50 ul of 10% SDS-0.01N HCl to each well to lyse the cells and dissolve formazan. After incubating for one hour, the plate was read spectrophoto-metrically at 540 nm and the percentage cytotoxicity calculated.
# KB Oral = experiment: three day MTT cytotoxicity assay, KB; format: cell-based, human; conditions: Standard (DMSO control), 72 hours
# Method: as §1
# PTC Colon = experiment: three day MTT cytotoxicity assay, PTC; format: cell-based, human; conditions: Standard (DMSO control), 72 hours
# Method: as §1
# DU145 Prostate = experiment: three day MTT cytotoxicity assay, DU145; format: cell-based, human; conditions: Standard (DMSO control), 72 hours
# Method: as §1
# Miapaca2 Pancreas = experiment: three day MTT cytotoxicity assay, Miapaca2; format: cell-based, human; conditions: Standard (DMSO control), 72 hours
# Method: as §1
# L132 Lung = experiment: three day MTT cytotoxicity assay, L132; format: cell-based, human; conditions: Standard (DMSO control), 72 hours
# Method: as §1
# Molt 4 Leukemia = experiment: three day MTT cytotoxicity assay, Molt 4; format: cell-based, human; conditions: Standard (DMSO control), 72 hours
# Method: as §1
# sarcoma 180 cells = conditions: injected into mice along with sarcoma 180 cells; cited from earlier work
# sarcoma tumor = conditions: in vivo; cited from earlier work
SMILES,ED50 of cytotoxicity (U87MG Glioblastoma) [µM],ED50 of cytotoxicity (KB Oral) [µM],ED50 of cytotoxicity (PTC Colon) [µM],ED50 of cytotoxicity (DU145 Prostate) [µM],ED50 of cytotoxicity (Miapaca2 Pancreas) [µM],ED50 of cytotoxicity (L132 Lung) [µM],ED50 of cytotoxicity (Molt 4 Leukemia) [µM],tumor development (sarcoma 180 cells),sarcoma tumor growth (sarcoma tumor)
COC(=O)C1CCC(=O)N1C(O)C(C)=O (centres unmarked) [MGC1],2250 ± 500,1700 ± 500,3700 ± 1400,1700 ± 600,4200 ± 1300,>5000,1500 ± 400,,
CCOC(=O)C1CCC(=O)N1C(O)C(C)=O (centres unmarked) [MGC4],2400 ± 500,1550 ± 300,3800 ± 1100,1800 ± 300,4200 ± 1100,>5000,1500 ± 200,,
CC(=O)OC(C(C)=O)N1C(=O)CCC1C(=O)OCc1ccccc1 (centres unmarked) [MGC7],1840 ± 600,1850 ± 600,2400 ± 500,850 ± 300,2400 ± 1000,>5000,1500 ± 200,,
"CC(=O)C=O [Methylglyoxal, 2-oxopropanal]",,,,,,,,no tumor developed,significantly inhibited

# From patent US6596755B2 (Dabur Research Foundation, priority 2001, dated 2003)
